Data reported in US7723523B2, “Tetrahydropyridothiophenes” (4SC AG, priority 2004, dated 2010).

Tests used:
[1] = tested on: RKO (RKOp27) human colon adenocarcinoma cells; assay: Alamar Blue cell viability assay, anti-proliferative/cytotoxic activity on proliferating RKOp27 cells; format: cell-based; conditions: absence of Ponasterone A, 72 hours incubation, read-out: IC50 RKO p27 proliferating
How it was run: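 IC50 values come from concentration-effect curves of Alamar Blue fluorescence (544/590 nm), relative to untreated controls set at 100%. Cells were RKOp27, seeded at 4000/well in DMEM with 10% FCS and exposed from 24 h post-seeding for 72 h (37 °C, 5% CO2) to semi-log dilutions, each run in quadruplicate.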

[2] = tested on: RKO colon adenocarcinoma cells (RKOp27) arrested by expression of ectopic p27Kip1; assay: Alamar Blue cell viability assay on RKOp27 cells arrested by Ponasterone A-induced p27Kip1 (cell cycle specific mode of action); format: cell-based; conditions: Homo sapiens, RKOp27, 72 h, cells arrested by p27Kip1 induced with 10 μM Ponasterone A, 72 hours incubation, read-out: IC50 RKO p27 arrested
How it was run: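 Viability measured by Alamar Blue fluorescence (ex 544, em 590 nm) after 72 h, 37 °C compound exposure in quadruplicate, normalized to untreated cells as 100%. Cells were p27Kip1-arrested RKOp27, induced with 10 μM Ponasterone A at seeding; compound added 24 h later.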

Row | Compound | IC50 [1] | IC50 [2]
1 | CCOc1ccccc1/C=C/C(=O)Nc1sc2c(c1C#N)CCN(C(=O)OCc1cccnc1)C2 [Example 237, 3-Cyano-2-[(E)-3-(2-ethoxy-phenyl)-allanoylamino]-4,7-dihydro-5H-thieno[2,3-c]pyridine-6-carboxylic acid pyridin-3-ylmethyl ester] | ≤ 2 µM | ≥ 100 µM
2 | CCOc1ccccc1/C=C/C(=O)Nc1sc2c(c1C#N)CCN(C(=O)OCc1ccncc1)C2 [Example 238, 3-Cyano-2-[(E)-3-(2-ethoxy-phenyl)-allanoylamino]-4,7-dihydro-5H-thieno[2,3-c]pyridine-6-carboxylic acid pyridin-4-ylmethyl ester] | ≤ 2 µM | ≥ 100 µM
3 | CCOc1ccccc1/C=C/C(=O)Nc1sc2c(c1C#N)CCN(C(=O)OCCc1ccccn1)C2 [Example 239, 3-Cyano-2-[(E)-3-(2-ethoxy-phenyl)-allanoylamino]-4,7-dihydro-5H-thieno[2,3-c]pyridine-6-carboxylic acid 2-pyridin-2-yl-ethyl ester] | ≤ 2 µM | ≥ 100 µM
4 | COCCOC(=O)N1CCc2c(sc(NC(=O)/C=C/c3ccco3)c2C#N)C1 [Example 240, 3-Cyano-2-((E)-3-furan-2-yl-allanoylamino)-4,7-dihydro-5H-thieno[2,3-c]pyridine-6-carboxylic acid 2-methoxy-ethyl ester] | ≤ 2 µM | ≥ 100 µM
5 | N#Cc1c(NC(=O)/C=C/c2ccco2)sc2c1CCN(C(=O)OCc1ccccn1)C2 [Example 241, 3-Cyano-2-((E)-3-furan-2-yl-allanoylamino)-4,7-dihydro-5H-thieno[2,3-c]pyridine-6-carboxylic acid pyridin-2-ylmethyl ester] | ≤ 2 µM | ≥ 100 µM
6 | N#Cc1c(NC(=O)/C=C/c2ccco2)sc2c1CCN(C(=O)OCc1cccnc1)C2 [Example 242, 3-Cyano-2-((E)-3-furan-2-yl-allanoylamino)-4,7-dihydro-5H-thieno[2,3-c]pyridine-6-carboxylic acid pyridin-3-ylmethyl ester] | ≤ 2 µM | ≥ 100 µM
7 | N#Cc1c(NC(=O)/C=C/c2ccco2)sc2c1CCN(C(=O)OCCc1ccccn1)C2 [Example 243, 3-Cyano-2-((E)-3-furan-2-yl-allanoylamino)-4,7-dihydro-5H-thieno[2,3-c]pyridine-6-carboxylic acid 2-pyridin-2-yl-ethyl ester] | ≤ 2 µM | ≥ 100 µM
